According to patent US9598389B2, “Dihydrobenzofuran derivatives as insecticidal compounds” (SYNGENTA PARTICIPATIONS AG, priority 2013, dated 2017):

Experiments:
Assay type in all cases: in vivo
[1] = test system: Plutella xylostella (Diamond Back Moth); assay: Plutella xylostella L2 larvae test on artificial diet; settings: 120 h, application rate of 200 ppm, 5 days after infestation, read-out: effect in at least one of the two categories (mortality or growth inhibition)
Method: Plutella xylostella (Diamond Back Moth):
24-well microtiter plates with artificial diet were treated with aqueous test solutions prepared from 10,000 ppm DMSO stock solutions by pipetting. After drying, the plates were infested with L2 larvae (10 to 15 per well). The samples were assessed for mortality and growth inhibition in comparison to untreated samples 5 days after infestation.

[2] = test system: Spodoptera Littoralis (Egyptian Cotton Leaf Worm); assay: Spodoptera littoralis cotton leaf disc spray test; settings: foliar, 72 h, application rate of 200 ppm, L1 larvae, 3 days after infestation, read-out: control (at least one of mortality, anti-feedant effect, growth inhibition)
Method: Spodoptera Littoralis (Egyptian Cotton Leaf Worm)
Cotton leaf discs were placed on agar in 24-well microtiter plates and sprayed with aqueous test solutions prepared from 10,000 ppm DMSO stock solutions. After drying the leaf discs were infested with five L1 larvae. The samples were assessed for mortality, anti-feedant effect, and growth inhibition in comparison to untreated samples 3 days after infestation. Control of Spodoptera littoralis by a test sample is when at least one of mortality, anti-feedant effect, and growth inhibition is higher than the untreated sample.

[3] = test system: Heliothis virescens (Tobacco Budworm); assay: Heliothis virescens egg/larval test on artificial diet; settings: application rate of 200 ppm, eggs 0-24 h old, 5 days after infestation, read-out: egg or larval mortality
Method: Heliothis virescens (Tobacco Budworm):
Eggs (0-24 h old) were placed in 24-well microtiter plates on artificial diet and treated with aqueous test solutions prepared from 10,000 ppm DMSO stock solutions by pipetting. The samples were assessed for egg and larval mortality 5 days after infestation.

[4] = test system: Diabrotica balteata (Corn Root Worm); assay: Diabrotica balteata L2 larvae test on artificial diet; settings: 120 h, application rate of 200 ppm, 5 days after infestation, read-out: effect in at least one of the two categories (mortality or growth inhibition)
Method: Diabrotica balteata (Corn Root Worm):
24-well microtiter plates with artificial diet were treated with aqueous test solutions prepared from 10,000 ppm DMSO stock solutions by pipetting. After drying, the plates were infested with L2 larvae (6 to 10 per well). The samples were assessed for mortality and growth inhibition in comparison to untreated samples 5 days after infestation.

[5] = test system: Thrips tabaci (Onion Thrips); assay: Thrips tabaci sunflower leaf disc spray test; settings: foliar, 144 h, application rate of 200 ppm, population of mixed ages, 6 days after infestation
Method: Thrips tabaci (Onion Thrips):
Sunflower leaf discs were placed on agar in 24-well microtiter plates and sprayed with aqueous test solutions prepared from 10,000 ppm DMSO stock solutions. After drying the leaf discs were infested with a thrips population of mixed ages. The samples were assessed for mortality 6 days after infestation.

[6] = test system: Myzus persicae (Green Peach Aphid); assay: Myzus persicae sucrose solution feeding test; settings: 120 h, test rate of 12 ppm, 5 days after infestation
Method: Myzus persicae (Green Peach Aphid)
Test compounds from 10,000 ppm DMSO stock solutions were applied by pipette into 24-well microtiter plates and mixed with sucrose solution. The plates were closed with a stretched Parafilm. A plastic stencil with 24 holes was placed onto the plate and infested pea seedlings were placed directly on the Parafilm. The infested plate was closed with a gel blotting paper and another plastic stencil and then turned upside down. The samples were assessed for mortality 5 days after infestation.

[7] = test system: Tetranychus urticae (Two-Spotted Spider Mite); assay: Tetranychus urticae bean leaf disc spray test; settings: foliar, 192 h, application rate of 200 ppm, 8 days after infestation, read-out: mortality on mixed population (mobile stages)
Method: Tetranychus urticae (Two-Spotted Spider Mite):
Bean leaf discs on agar in 24-well microtiter plates were sprayed with aqueous test solutions prepared from 10,000 ppm DMSO stock solutions. After drying the leaf discs were infested with a mite population of mixed ages. The samples were assessed for mortality on mixed population (mobile stages) 8 days after infestation.

O=C(Nc1cccc(-c2ccc3c(c2)CC(c2cccc(C(F)(F)F)c2)(C(F)(F)F)O3)c1)C1CC1 (stereo not shown) [Compound 182, N-(3-(2-(trifluoromethyl)-2-(3-(trifluoromethyl)phenyl)-2,3-dihydrobenzofuran-5-yl)phenyl)cyclopropanecarboxamide]
≥ 80%: percent effect (mortality or growth inhibition) at 200 ppm [1] | percent control (mortality, anti-feedant effect or growth inhibition) at 200 ppm [2] | mortality at 200 ppm [3]

CCC(=O)Nc1ccnc(-c2cc3c(cc2Cl)OC(c2cc(Cl)cc(Cl)c2)(C(F)(F)F)C3)c1 (stereo not shown) [Compound 136, N-[2-[6-chloro-2-(3,5-dichlorophenyl)-2-(trifluoromethyl)-3H-benzofuran-5-yl]-4-pyridyl]propanamide]
≥ 80%: percent effect (mortality or growth inhibition) at 200 ppm [1] | percent control (mortality, anti-feedant effect or growth inhibition) at 200 ppm [2] | mortality at 200 ppm [3]

O=C(Nc1cccc(-c2ccc3c(c2)CC(c2cc(Cl)cc(Cl)c2)(C(F)(F)F)O3)c1F)C1CC1 (stereo not shown) [Compound 42, N-(3-(2-(3,5-dichlorophenyl)-2-(trifluoromethyl)-2,3-dihydrobenzofuran-5-yl)-2-fluorophenyl)cyclopropanecarboxamide]
≥ 80%: percent control (mortality, anti-feedant effect or growth inhibition) at 200 ppm [2] | mortality at 200 ppm [3]

CCC(=O)Nc1cccc(-c2ccc3c(c2)CC(c2cc(Cl)cc(Cl)c2)(C(F)(F)F)C3O)c1 (stereo not shown) [Compound 270, N-{3-[2-(3,5-Dichloro-phenyl)-1-hydroxy-2-trifluoromethyl-indan-5-yl]-phenyl}-propionamide]
≥ 80%: percent effect (mortality or growth inhibition) at 200 ppm [1] | percent control (mortality, anti-feedant effect or growth inhibition) at 200 ppm [2] | percent effect (mortality or growth inhibition) at 200 ppm [4] | mortality at 200 ppm [3]

CCC(=O)Nc1cccc(-c2ccc3c(c2)CC(c2cc(Cl)cc(Cl)c2)(C(F)(F)F)C3=O)c1 (stereo not shown) [Compound 269, N-{3-[2-(3,5-Dichloro-phenyl)-1-oxo-2-trifluoromethyl-indan-5-yl]-phenyl}-propionamide]
≥ 80%: percent effect (mortality or growth inhibition) at 200 ppm [1] | percent control (mortality, anti-feedant effect or growth inhibition) at 200 ppm [2] | percent effect (mortality or growth inhibition) at 200 ppm [4] | mortality at 200 ppm [5] | mortality at 200 ppm [3]

N#Cc1ccc(-c2ccc3c(c2)CC(c2cc(Cl)cc(Cl)c2)(C(F)(F)F)O3)cc1N1CCCC1=O (stereo not shown) [Compound 261, 4-[2-(3,5-Dichloro-phenyl)-2-trifluoromethyl-2,3-dihydro-benzofuran-5-yl]-2-(2-oxo-pyrrolidin-1-yl)-benzonitrile]
≥ 80%: percent effect (mortality or growth inhibition) at 200 ppm [1] | percent control (mortality, anti-feedant effect or growth inhibition) at 200 ppm [2]

O=C(Nc1cccc(-c2ccc3c(c2)CC(c2cc(Cl)cc(Cl)c2)(C(F)(F)F)O3)c1)C1CC1 (stereo not shown) [Compound 141, N-(3-(2-(3,5-dichlorophenyl)-2-(trifluoromethyl)-2,3-dihydrobenzofuran-5-yl)phenyl)cyclopropanecarboxamide]
≥ 80%: mortality at 12 ppm [6] | percent effect (mortality or growth inhibition) at 200 ppm [1] | percent control (mortality, anti-feedant effect or growth inhibition) at 200 ppm [2] | percent effect (mortality or growth inhibition) at 200 ppm [4] | mortality at 200 ppm [5] | mortality at 200 ppm [3]

CCC(=O)Nc1cccc(-c2ccc3c(c2)CC(c2cc(Cl)cc(Cl)c2)(C(F)(F)F)S3)c1 (stereo not shown) [Compound 268, N-[3-[2-(3,5-dichlorophenyl)-2-(trifluoromethyl)-3H-benzothiophen-5-yl]phenyl]propanamide]
≥ 80%: mortality at 12 ppm [6] | percent effect (mortality or growth inhibition) at 200 ppm [1] | percent control (mortality, anti-feedant effect or growth inhibition) at 200 ppm [2] | mortality at 200 ppm [5]

CCC(=O)Nc1cc(-c2ccc3c(c2)CC(c2cc(Cl)cc(Cl)c2)(C(F)(F)F)O3)ccc1C#N (stereo not shown) [Compound 198, N-[2-cyano-5-[2-(3,5-dichlorophenyl)-2-(trifluoromethyl)-3H-benzofuran-5-yl]phenyl]propanamide]
≥ 80%: mortality at 12 ppm [6] | percent effect (mortality or growth inhibition) at 200 ppm [1] | mortality at 200 ppm [7] | percent control (mortality, anti-feedant effect or growth inhibition) at 200 ppm [2] | percent effect (mortality or growth inhibition) at 200 ppm [4] | mortality at 200 ppm [5] | mortality at 200 ppm [3]

O=C1CCCN1c1cccc(-c2ccc3c(c2)CC(c2cc(Cl)cc(Cl)c2)(C(F)(F)F)O3)c1 (stereo not shown) [Compound 254, 1-{3-[2-(3,5-Dichloro-phenyl)-2-trifluoromethyl-2,3-dihydro-benzofuran-5-yl]-phenyl}-pyrrolidin-2-one]
≥ 80%: percent effect (mortality or growth inhibition) at 200 ppm [1]

O=C(Nc1cc(-c2ccc3c(c2)CC(c2cc(Cl)cc(Cl)c2)(C(F)(F)F)O3)ccn1)C1CC1 (stereo not shown) [Compound 137, N-[4-[2-(3,5-dichlorophenyl)-2-(trifluoromethyl)-3H-benzofuran-5-yl]-2-pyridyl]cyclopropanecarboxamide]
≥ 80%: percent effect (mortality or growth inhibition) at 200 ppm [1] | percent control (mortality, anti-feedant effect or growth inhibition) at 200 ppm [2] | percent effect (mortality or growth inhibition) at 200 ppm [4] | mortality at 200 ppm [3]

CCC(=O)Nc1cc(-c2ccc3c(c2)CC(c2cc(Cl)cc(Cl)c2)(C(F)(F)F)S3)ccc1C#N (stereo not shown) [Compound 267, N-{2-Cyano-5-[2-(3,5-dichloro-phenyl)-2-trifluoromethyl-2,3-dihydro-benzo[b]thiophen-5-yl]-phenyl}-propionamide]
≥ 80%: percent effect (mortality or growth inhibition) at 200 ppm [1] | percent control (mortality, anti-feedant effect or growth inhibition) at 200 ppm [2]
